Here are results for 1 sequence from patent publication US9745357B2, “Peptides used for treating cancers and, in particular, chronic lymphoid leukaemia” (Centre National de la Recherche Scientifique, priority 2009, dated 2017).

In test [1] the test system is B lymphocytes from patients suffering from chronic lymphoid leukemia (CLL). The note with it: for pIC50: read-out: IC50 (concentration of peptide causing the death of 50% of the cells), after 24 H. As for the experimental part:
Peripheral blood B lymphocytes taken from patients suffering from CLL and then purified on a Ficoll cushion and placed in culture are incubated in the presence of […] of the peptides described for FIG. 2. The percentage cell survival after 4 hours (gray column) or 24 hours (white column) of culture corresponds to the percentage of cells labeled neither with annexin nor with propidium iodide, evaluated by flow cytometry.
The CLL B lymphocytes were obtained from peripheral blood of 18 different patients suffering from chronic lymphoid leukemia. […] The samples were taken in the Brest hospital center, in the hematology department. The blood samples were taken after informing the patients and obtaining their informed consent.
The lymphocytes, mononuclear cells, were isolated from the heparinized peripheral blood samples by Ficoll-Hypaque (LSM 1077 lymphocyte, euro-bio) centrifugation. The red blood cells were lyzed by incubation for 10 min in VersaLyse Lysing Solution (Beckman Coulter). The mononuclear cells are obtained after 2 washes in culture medium (RPMI1640, Gibco BRL).
(§1) The cells were cultured in a culture medium composed either of RPMI 1640 (B lymphocytes) or of DMEM (COS7, HCT116, HGT1, 293, HeLa) containing 10% of FCS (fetal calf serum, 1% of penicillin-streptomycin and 1% of glutamine, Gibco BRL). The cells are distributed in a 24-well plate and cultured at 37° C. in a humid atmosphere under 5% CO2.
(§2) 400 μl of cell suspension (1×10^6 cells/ml) per well were treated for 4 h or 24 h with various concentrations of peptides. The test for activity of the peptides in the presence of emetine (FIG. 6) was carried out by preincubating the cells with 100 μM of emetine for one hour before the addition of peptide.
(§3) After the cells have been washed with PBS, they were analyzed using the Annexin V-FITC IP system according to the supplier's recommendations (Beckman Coulter).
The cells taken from patients suffering from chronic lymphoid leukemia were purified on a Ficoll cushion. […] The cells were placed in culture in RPMI medium in the presence of 10% FCS (fetal calf serum). The peptides were added directly to the culture medium. These peptides comprise the IRS sequence (the amino acid sequence of which is RYIRS) which is known to allow the penetration of peptides into B lymphocytes in culture (Dong et al., 2005). […] The cells which survive the treatment are those which are labeled neither with annexin nor with propidium iodide.

Test [2] relates to control T lymphocytes (patients suffering from hemochromatosis). Put plainly: Cell survival of control T lymphocytes, annexin/propidium iodide flow cytometry. It counts as cell-based, human. As for the experimental part:
(§4) FIG. 7: Activity of the A1WT peptide on cells of lymphocytic, lymphoid, gastric, colonic or renal origin The cells are prepared and placed in culture (see Materials and Methods) and then incubated for 4 H with the A1WT or A1 YALA peptide. The percentage cell survival corresponds to the percentage of cells labeled neither with annexin nor with propidium iodide, evaluated by flow cytometry. The names of the pathological conditions from which the patients from whom the samples are taken are suffering are indicated under the figure. The control T (L.T.) and B (L.B.) lymphocytes are taken from patients suffering from a disease not related to a lymphocytic pathological condition (hemochromatosis).
The control B lymphocytes and T lymphocytes originate from peripheral blood samples from patients suffering from hemochromatosis, provided by the CTS transfusion center in Brest. The B and T lymphocytes were isolated using the Rosett-Sep kit (Stemcell Technologies) according to the supplier's recommendations.
as §1, §2, §3

In test [3] the test system is 293 cells (human embryo kidney cells transformed with adenovirus 5). Put plainly: Cell survival of 293 cells, Syto 13/propidium iodide fluorescence microscopy. It counts as cell-based. The note with it: one hour incubation, various concentrations; FIG. 10. As for the experimental part: The cells cultured in glass-bottomed multiwell plates are incubated for one hour with the A1WT or A1 YALA peptide at the concentrations indicated on the figure. The percentage cell survival is obtained by calculating the ratio between the cells stained with Syto 13 and those stained with propidium iodide (see Materials and Methods).
The analyses were carried out on a Zeiss Observer Z1 epifluorescence microscope. The cells are cultured in a glass-bottomed multiwell plate, propidium iodide and Syto13 (Invitrogen) are added to the medium at a concentration of 1 mg/ml and 5 μM, respectively. The Syto 13 binds to the DNA in the nuclei of the cells which then emit a green fluorescence. When the membrane permeability is modified during the cell death process, the propidium iodide penetrates the cell and causes the appearance of a red fluorescence when it binds to the DNA of the cell nuclei. The ratio between the number of nuclei emitting a green fluorescence and the number of nuclei emitting a red fluorescence represents the fraction of live cells expressed as percentage cell survival in the figures.

Test [4] relates to acute myeloid leukemia (AML) cells. It counts as cell-based, human. The note with it: 4 h, 40 μM. As for the experimental part: as §4, §1
400 μl of cell suspension (1×10^6 cells/ml) per well were treated for 4 h or 24 h with various concentrations of peptides. […]
After the cells have been washed with PBS, they were analyzed using the Annexin V-FITC IP system according to the supplier's recommendations (Beckman Coulter). […]

Test [5] concerns Jok cells (cell line derived from B lymphocytes). As to the kind of experiment: Cell survival of Jok cells, annexin/propidium iodide flow cytometry. The format is cell-based, human. As for the experimental part: The cells are treated as indicated for FIG. 7, with the CLL cells, control T lymphocytes and Jok lymphocytes, which are incubated with the A1 WT IRS peptide and derivatives thereof described in table 1. The Jok cells were incubated either with 20 μM (JOK 20) or with 40 μM (JOK 40) of each of the peptides. In the interests of simplifying the legend, the A1 WT IRS peptide is referred to as “WT”. Likewise, the derivatives thereof are referred to by the name of the mutations (A1 K3I IRS is referred to as “K3I”, for example).
as §1, §2, §3
The peptides were tested on B lymphocytes from patients suffering from chronic lymphoid leukemia, control T lymphocytes, or Jok cells (cell line derived from B lymphocytes). The experiment was repeated three times for each type of cell tested.

Where [6] appears, read: 40 μM peptide, 4 hours of culture, cells not labeled with annexin or propidium iodide.

pIC50: −log10 of the molar value. Read-outs that look alike come from different tables or passages of the source. No end group written: not given here.

In the case of “RRKYGRDFLLRFRYIRS [A1 WT IRS, RRKYGRDFLLRFRYIRS]”, the “cell survival, peptide in the presence of emetine” value in test [1] (40 μM peptide after 1 h preincubation with 100 μM emetine, 4 H (from 97%), FIG. 6) is recorded as 27%. Moreover, in test [1] (setting [6]), the “cell effect CLL 40 (survival)” value was “+ (+: survival <25%)”. In test [1] (40 μM, 1 H, 2 H, 4 H and 24 H, FIG. 4), the “change of the effect on survival over time” value was “no longer active after 4 H of incubation”. For the same sequence, the “effect of the peptide on cell mortality, in words (relative to A1 WT IRS)” value in test [1] (40 μM, 4 hours, FIG. 9) is reported as “high cell mortality”; in test [5] (40 μM, 4 hours, FIG. 9) it was “high cell mortality”. The “cell survival rate compared with cells incubated without peptide” value in test [1] (4 H of incubation with 20 μM of peptide, FIG. 8) is on record as “less than 65%”. For the same sequence, the pIC50 in test [1] (batch of cells from a second patient) is 4.62; in test [1] (first patient, FIG. 5) it was approximately 4.55. For the same sequence, in test [2] (setting [6]), the “cell effect LT 40 (survival)” value is given as “+ (+: survival <25%)”. The survival rate turned out to be 38% in test [2] (after 4 H of incubation with 40 μM, FIG. 7) and 38% in test [4]. The “effect on cell survival” value in test [3] was “dose-dependent effect”. Moreover, the “cell effect Jok 20 (survival)” value in test [5] (20 μM peptide, 4 hours of culture, cells not labeled with annexin or propidium iodide) is on record as “+ (+: survival <25%)”. In test [5] (setting [6]), the “cell effect Jok 40 (survival)” value is recorded as “+ (+: survival <25%)”.
